{
  "source": "patent JPH0776588A",
  "about": "“p−ボロノフェニルアラニン誘導体、その製造方法及び該誘導体の中間体化合物” (Nippon Aluminum Alkyls Ltd, priority 1993, dated 1995)",
  "key": {"[1]": {"assay": "Cytotoxicity in cultured  (B16)", "assay_type": "cell-based, human", "details": "human, B16 cells"}, "B16 cells [B16細胞]": {"tested_on": "B16 cells [B16細胞]", "assay": "Permeability (浸透性) into B16 cells, residual intracellular boron by ICP-MS", "assay_type": "cell-based, human", "details": "24 h"}, "水溶性値 (water solubility)": {"assay": "水溶性値 (water solubility)", "assay_type": "physicochemical", "details": "for solubility: water, M (mol dm-3)"}, "[2]": {"tested_on": "B-16 human melanoma cells (B16) [B−16ヒト黒色癌細胞(B16)]", "assay": "Cytotoxicity in cultured  (B16)", "assay_type": "cell-based", "details": "50% or more not killed even after 3 days at 1.77×10^-2 M"}, "[3]": {"tested_on": "TIG-1-20 human infant germ cells (T20) [TIG−1−20ヒト乳児胚芽細胞(T20)]", "assay": "Permeability (浸透性) into T20 cells, residual intracellular boron by ICP-MS", "assay_type": "cell-based", "details": "boron compound 0.4 mmol, 37°C, 24 h"}, "[4]": {"details": "permeability B16 versus T20, 37°C"}},
  "data": [
    {"molecule": "NC(Cc1ccc(B(O)O)cc1)C(=O)O", "note": "(racemic) [BPA, p−ボロノフェニルアラニン, reference compound]", "values": [
      {"measurement": "IC50 at 72 h", "setting": "[1]; similar culture conditions (compound (1): after 3 days)", "value": 8.55, "unit": "mM"},
      {"measurement": "selectivity for B16 over T20 (in words)", "setting": "B16 cells [B16細胞]; [4]", "value": "殆ど選択性がない"},
      {"measurement": "solubility", "setting": "水溶性値 (water solubility)", "value": 7.66, "unit": "mM"}
    ]},
    {"molecule": "NC(Cc1ccc(B(O)O)cc1)C(=O)NC(CO)CO", "note": "(stereo not shown) [化合物(1)]", "values": [
      {"measurement": "cytotoxicity at 72 h, 17700 µM", "setting": "[1]; compound at 1.77×10^-2 M, even after 3 days, read-out: cells killed", "value": "< 50", "unit": "%"},
      {"measurement": "IC50 (in words)", "setting": "[2]", "value": "高い"},
      {"measurement": "permeability into T20 cells (in words, versus BPA)", "setting": "[3]", "value": "BPAよりはるかに低かった"},
      {"measurement": "permeability into B16 cells (in words, versus BPA)", "setting": "B16 cells [B16細胞]; boron compound 0.4 mmol, 37°C", "value": "BPAよりわずかに高い浸透性"},
      {"measurement": "selectivity for B16 over T20", "setting": "B16 cells [B16細胞]; [4]", "value": "≥ 5", "unit": "fold"},
      {"measurement": "water solubility value relative to BPA", "setting": "水溶性値 (water solubility); ratio to BPA", "value": "~100", "unit": "fold"},
      {"measurement": "solubility", "setting": "水溶性値 (water solubility)", "value": 660, "unit": "mM"}
    ]}
  ]
}
